System: 485176-168-R4-J1-PDC spheroids with HUVEC/MSC, viability
Assay: Anticancer human tumor 485176-168-R4-J1-PDC patient-derived pancreatic adenocarcinoma cell line growth inhibition [GQUAD]
Conditions: for IC50: curve of first compound; for viability, T/C: stronger effect = lower value
Procedure, shortened: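 Viability of tumor cells grown as complex spheroids with endothelial and stromal cells, exposed to drug combinations. Top concentration at or near clinical Cmax (else 10 microM), diluted in half-log increments.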

[1] = second compound 0.0316 µM, first compound 0.0316 µM
[2] = second compound 0.0316 µM, first compound 0.1 µM
[3] = second compound 0.0316 µM, first compound 0.316 µM
[4] = second compound 0.0316 µM, first compound 1 µM
[5] = second compound 0.0316 µM, first compound 3.16 µM
[6] = second compound 0.0316 µM, first compound 10 µM
[7] = second compound 0.1 µM, first compound 0.0316 µM
[8] = second compound 0.1 µM, first compound 0.1 µM
[9] = second compound 0.1 µM, first compound 0.316 µM
[10] = second compound 0.1 µM, first compound 1 µM
[11] = second compound 0.1 µM, first compound 3.16 µM
[12] = second compound 0.1 µM, first compound 10 µM
[13] = second compound 0.316 µM, first compound 0.0316 µM
[14] = second compound 0.316 µM, first compound 0.1 µM
[15] = second compound 0.316 µM, first compound 0.316 µM
[16] = second compound 0.316 µM, first compound 1 µM
[17] = second compound 0.316 µM, first compound 3.16 µM
[18] = second compound 0.316 µM, first compound 10 µM
[19] = second compound 1 µM, first compound 0.0316 µM
[20] = second compound 1 µM, first compound 0.1 µM
[21] = second compound 1 µM, first compound 0.316 µM
[22] = second compound 1 µM, first compound 1 µM
[23] = second compound 1 µM, first compound 3.16 µM
[24] = second compound 1 µM, first compound 10 µM
[25] = second compound 3.16 µM, first compound 0.0316 µM
[26] = second compound 3.16 µM, first compound 0.1 µM
[27] = second compound 3.16 µM, first compound 0.316 µM
[28] = second compound 3.16 µM, first compound 1 µM
[29] = second compound 3.16 µM, first compound 3.16 µM
[30] = second compound 3.16 µM, first compound 10 µM
[31] = second compound 10 µM, first compound 0.0316 µM
[32] = second compound 10 µM, first compound 0.1 µM
[33] = second compound 10 µM, first compound 0.316 µM
[34] = second compound 10 µM, first compound 1 µM
[35] = second compound 10 µM, first compound 3.16 µM
[36] = second compound 10 µM, first compound 10 µM
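Also: spheroids exposed to compounds for seven days before readout.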
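For viability, T/C in this document: percent viability relative to DMSO vehicle control wells as 100%.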

## COc1cccc2c1C(=O)c1c(O)c3c(c(O)c1C2=O)CC(O)(C(=O)CO)CC3OC1CC(N)C(O)C(C)O1 (stereo unspecified) + CN(C)c1ccc(Nc2c3ccc(NC(=O)CCN4CCCC4)cc3nc3cc(NC(=O)CCN4CCCC4)ccc23)cc1
Second compound 0.0316 µM
  IC50: 271 nM
Second compound 0.1 µM
  IC50: 263 nM
Second compound 0.316 µM
  IC50: 417 nM
Second compound 1 µM
  IC50: 412 nM
Second compound 3.16 µM
  IC50: 396 nM
Second compound 10 µM
  IC50: 305 nM
[1]
  viability, T/C: 104%
[2]
  viability, T/C: 65.5%
[3]
  viability, T/C: 59.2%
[4]
  viability, T/C: 15.4%
[5]
  viability, T/C: 3.54%
[6]
  viability, T/C: 0.22%
[7]
  viability, T/C: 95.2%
[8]
  viability, T/C: 70.9%
[9]
  viability, T/C: 49.2%
[10]
  viability, T/C: 17.8%
[11]
  viability, T/C: 2.43%
[12]
  viability, T/C: 0.16%
[13]
  viability, T/C: 84.9%
[14]
  viability, T/C: 67%
[15]
  viability, T/C: 62%
[16]
  viability, T/C: 22.5%
[17]
  viability, T/C: 3.97%
[18]
  viability, T/C: 0.2%
[19]
  viability, T/C: 99.5%
[20]
  viability, T/C: 78.2%
[21]
  viability, T/C: 64.1%
[22]
  viability, T/C: 17.4%
[23]
  viability, T/C: 4.15%
[24]
  viability, T/C: 0.16%
[25]
  viability, T/C: 84.2%
[26]
  viability, T/C: 83.2%
[27]
  viability, T/C: 53.4%
[28]
  viability, T/C: 25.7%
[29]
  viability, T/C: 2.96%
[30]
  viability, T/C: 0.21%
[31]
  viability, T/C: 72.2%
[32]
  viability, T/C: 68.4%
[33]
  viability, T/C: 48.5%
[34]
  viability, T/C: 22.9%
[35]
  viability, T/C: 5.36%
[36]
  viability, T/C: 0.33%

## Nc1ccn(C2OC(CO)C(O)C2(F)F)c(=O)n1 (stereo unspecified) + CN(C)c1ccc(Nc2c3ccc(NC(=O)CCN4CCCC4)cc3nc3cc(NC(=O)CCN4CCCC4)ccc23)cc1
Second compound 0.0316 µM
  IC50: 49.1 nM
Second compound 0.1 µM
  IC50: 45.9 nM
Second compound 0.316 µM
  IC50: 43.6 nM
Second compound 1 µM
  IC50: 61.2 nM
Second compound 3.16 µM
  IC50: 55.9 nM
Second compound 10 µM
  IC50: 41.3 nM
[1]
  viability, T/C: 70.3%
[2]
  viability, T/C: 17.4%
[3]
  viability, T/C: 10.6%
[4]
  viability, T/C: 9.81%
[5]
  viability, T/C: 10.5%
[6]
  viability, T/C: 12.1%
[7]
  viability, T/C: 63.7%
[8]
  viability, T/C: 22%
[9]
  viability, T/C: 10.5%
[10]
  viability, T/C: 10.5%
[11]
  viability, T/C: 10.3%
[12]
  viability, T/C: 10.9%
[13]
  viability, T/C: 62.1%
[14]
  viability, T/C: 19.4%
[15]
  viability, T/C: 10.4%
[16]
  viability, T/C: 10.9%
[17]
  viability, T/C: 10.5%
[18]
  viability, T/C: 13.7%
[19]
  viability, T/C: 90.1%
[20]
  viability, T/C: 20.1%
[21]
  viability, T/C: 10.6%
[22]
  viability, T/C: 12.5%
[23]
  viability, T/C: 11.6%
[24]
  viability, T/C: 9.65%
[25]
  viability, T/C: 81.3%
[26]
  viability, T/C: 18.1%
[27]
  viability, T/C: 10.6%
[28]
  viability, T/C: 11.5%
[29]
  viability, T/C: 10%
[30]
  viability, T/C: 11.9%
[31]
  viability, T/C: 58%
[32]
  viability, T/C: 23.7%
[33]
  viability, T/C: 10.4%
[34]
  viability, T/C: 10.9%
[35]
  viability, T/C: 11.1%
[36]
  viability, T/C: 11.2%

## O=c1[nH]cc(F)c(=O)[nH]1 + CN(C)c1ccc(Nc2c3ccc(NC(=O)CCN4CCCC4)cc3nc3cc(NC(=O)CCN4CCCC4)ccc23)cc1
Second compound 0.0316 µM
  IC50: > 10000 nM
Second compound 0.1 µM
  IC50: 2630 nM
Second compound 0.316 µM
  IC50: > 10000 nM
Second compound 1 µM
  IC50: > 10000 nM
Second compound 3.16 µM
  IC50: > 10000 nM
Second compound 10 µM
  IC50: 932 nM
[1]
  viability, T/C: 100%
[2]
  viability, T/C: 105%
[3]
  viability, T/C: 78.8%
[4]
  viability, T/C: 61.8%
[5]
  viability, T/C: 53.6%
[6]
  viability, T/C: 53.6%
[7]
  viability, T/C: 102%
[8]
  viability, T/C: 87.7%
[9]
  viability, T/C: 88.8%
[10]
  viability, T/C: 56.2%
[11]
  viability, T/C: 46.3%
[12]
  viability, T/C: 51%
[13]
  viability, T/C: 97.3%
[14]
  viability, T/C: 91.5%
[15]
  viability, T/C: 83.3%
[16]
  viability, T/C: 52%
[17]
  viability, T/C: 66.1%
[18]
  viability, T/C: 57.2%
[19]
  viability, T/C: 94.4%
[20]
  viability, T/C: 106%
[21]
  viability, T/C: 71.4%
[22]
  viability, T/C: 56.1%
[23]
  viability, T/C: 52%
[24]
  viability, T/C: 53.2%
[25]
  viability, T/C: 90.8%
[26]
  viability, T/C: 94.1%
[27]
  viability, T/C: 73.9%
[28]
  viability, T/C: 59.6%
[29]
  viability, T/C: 61.8%
[30]
  viability, T/C: 47.2%
[31]
  viability, T/C: 84.9%
[32]
  viability, T/C: 80.2%
[33]
  viability, T/C: 59.9%
[34]
  viability, T/C: 51.4%
[35]
  viability, T/C: 46.4%
[36]
  viability, T/C: 45.5%

From PubChem BioAssay AID2060509 (Molecular Pharmacology Branch, DTP, NCI, 2025)
